Measured values published in PubChem BioAssay (NCI).
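Dose response: 5 concentrations. Exposure: 48 h. Format: 96-well plates. Endpoint: linear interpolation; highest concentration if not reached. Here, GI50 denotes the concentration required for 50% inhibition of growth. At the TGI there is no net growth.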

Key:
Assay in all cases: growth of human tumour cells (NCI), 48 h
[1] = test system: UACC-62 melanoma
[2] = test system: SK-MEL-5 melanoma
[3] = test system: CCRF-CEM leukemia
[4] = test system: SK-MEL-28 melanoma
[5] = test system: OVCAR-5 ovarian
[6] = test system: OVCAR-8 ovarian
[7] = test system: UO-31 renal
[8] = test system: HT29 colon
[9] = test system: TK-10 renal
[10] = test system: SF-539 CNS
[11] = test system: COLO 205 colon
[12] = test system: OVCAR-4 ovarian
[13] = test system: SNB-19 CNS
[14] = test system: SK-MEL-2 melanoma
[15] = test system: RPMI-8226 leukemia
[16] = test system: RXF 393 renal
[17] = test system: IGROV1 ovarian
[18] = test system: MDA-MB-435
[19] = test system: NCI-H23 lung
[20] = test system: K-562 leukemia
[21] = test system: SF-295 CNS
[22] = test system: U251 CNS
[23] = test system: UACC-257 melanoma
[24] = test system: MDA-MB-231 breast
[25] = test system: NCI-H460 lung
[26] = test system: A498 renal
[27] = test system: ACHN renal
[28] = test system: PC-3 prostate
[29] = test system: A549 NSCLC
[30] = test system: OVCAR-3 ovarian
[31] = test system: SK-OV-3 ovarian
[32] = test system: CAKI-1 renal
[33] = test system: KM12 colon
[34] = test system: HCT-15 colon
[35] = test system: T-47D breast
[36] = test system: HOP-92 NSCLC
[37] = test system: HCC-2998 colon
[38] = test system: MCF7 breast
[39] = test system: MDA-N
[40] = test system: LOX IMVI melanoma
[41] = test system: SW-620 colon
[42] = test system: HOP-62 NSCLC
[43] = test system: SNB-75 CNS
[44] = test system: DU-145 prostate
[45] = test system: M14 melanoma
[46] = test system: HL-60(TB) leukemia
[47] = test system: SF-268 CNS
[48] = test system: SR leukemia
[49] = test system: MOLT-4 leukemia
[50] = test system: 786-0 renal
[51] = test system: NCI/ADR-RES ovarian
[52] = test system: BT-549 breast
[53] = test system: EKVX NSCLC
[54] = test system: NCI-H522 lung
[55] = test system: HCT-116 colon
[56] = test system: SN12C renal
[57] = test system: HS 578T breast
[58] = test system: NCI-H226 lung
[59] = test system: MALME-3M melanoma

CCOC(=O)c1csc(NC(=O)C(C)N2CCCC2)n1 (stereo unspecified)
TGI [1]: > 100 µM
TGI [2]: > 100 µM
TGI [3]: > 100 µM
TGI [4]: > 100 µM
TGI [5]: > 100 µM
TGI [6]: > 100 µM
TGI [7]: > 100 µM
TGI [8]: > 100 µM
TGI [9]: > 100 µM
TGI [10]: > 100 µM
TGI [11]: > 100 µM
TGI [12]: > 100 µM
TGI [13]: > 100 µM
TGI [14]: > 100 µM
TGI [15]: > 100 µM
TGI [16]: > 100 µM
TGI [17]: > 100 µM
TGI [18]: > 100 µM
TGI [19]: > 100 µM
TGI [20]: > 100 µM
TGI [21]: > 100 µM
TGI [22]: > 100 µM
TGI [23]: > 100 µM
TGI [24]: > 100 µM
TGI [25]: > 100 µM
TGI [26]: > 100 µM
TGI [27]: > 100 µM
TGI [28]: > 100 µM
TGI [29]: > 100 µM
TGI [30]: > 100 µM
TGI [31]: > 100 µM
TGI [32]: > 100 µM
TGI [33]: > 100 µM
TGI [34]: > 100 µM
TGI [35]: > 100 µM
TGI [36]: > 100 µM
TGI [37]: > 100 µM
TGI [38]: > 100 µM
TGI [39]: > 100 µM
TGI [40]: > 100 µM
TGI [41]: > 100 µM
TGI [42]: > 100 µM
TGI [43]: > 100 µM
TGI [44]: > 100 µM
TGI [45]: > 100 µM

COc1cc2c(N3CCN(C(=O)Nc4ccc(OC(C)C)cc4)CC3)ncnc2cc1OCCCN1CCCCC1
GI50 [1]: 15.8 µM
TGI [1]: 31 µM
GI50 [2]: 13.2 µM
TGI [2]: 26 µM
GI50 [3]: 18.3 µM
TGI [3]: > 79.3 µM
GI50 [4]: 15.1 µM
TGI [4]: 30.9 µM
GI50 [5]: 26.8 µM
TGI [5]: > 90.1 µM
GI50 [6]: 20.9 µM
TGI [6]: 99.2 µM
GI50 [7]: 15.2 µM
TGI [7]: 40.7 µM
GI50 [8]: 6.59 µM
TGI [8]: 26.4 µM
GI50 [9]: 38.9 µM
TGI [9]: > 100 µM
GI50 [46]: 15.1 µM
TGI [46]: 36.1 µM
GI50 [10]: 6.43 µM
TGI [10]: 22.3 µM
GI50 [11]: 11.9 µM
TGI [11]: 26.5 µM
GI50 [12]: 14.4 µM
TGI [12]: 53.9 µM
GI50 [13]: 22.2 µM
TGI [13]: > 100 µM
GI50 [47]: 16.2 µM
TGI [47]: 38.6 µM
GI50 [14]: 15.6 µM
TGI [14]: 32.3 µM
GI50 [48]: 9.55 µM
TGI [48]: 46.2 µM
GI50 [15]: 11.7 µM
TGI [15]: > 54.1 µM
GI50 [16]: 8.61 µM
TGI [16]: 23.6 µM
GI50 [17]: 31.8 µM
TGI [17]: 97.7 µM
GI50 [49]: 12.8 µM
TGI [49]: 61.2 µM
GI50 [18]: 13.8 µM
TGI [18]: 29.9 µM
GI50 [19]: 14.6 µM
TGI [19]: 39.1 µM
GI50 [20]: 4.98 µM
TGI [20]: > 100 µM
GI50 [21]: 12.5 µM
TGI [21]: 27.9 µM
GI50 [50]: 17.6 µM
TGI [50]: 37.8 µM
GI50 [22]: 14 µM
TGI [22]: 41.8 µM
GI50 [51]: 53.1 µM
TGI [51]: > 100 µM
GI50 [23]: 10.3 µM
TGI [23]: 23.6 µM
GI50 [24]: 14.4 µM
TGI [24]: 32.4 µM
GI50 [25]: 18.4 µM
TGI [25]: > 61.3 µM
GI50 [26]: 15 µM
TGI [26]: 40.7 µM
GI50 [27]: 20.8 µM
TGI [27]: 55.6 µM
GI50 [28]: 18.8 µM
TGI [28]: > 100 µM
GI50 [29]: 17.1 µM
TGI [29]: > 93.7 µM
GI50 [52]: 13.4 µM
TGI [52]: 29.3 µM
GI50 [30]: 22.2 µM
TGI [30]: > 59 µM
GI50 [53]: 28.9 µM
TGI [53]: > 100 µM
GI50 [31]: 18.4 µM
TGI [31]: 39.9 µM
GI50 [32]: 17.4 µM
TGI [32]: > 54.9 µM
GI50 [33]: 3.22 µM
TGI [33]: 29.8 µM
GI50 [54]: 16.6 µM
TGI [54]: 36.1 µM
GI50 [34]: 16.7 µM
TGI [34]: 36.1 µM
GI50 [35]: 16.6 µM
TGI [35]: 61.5 µM
GI50 [55]: 14 µM
TGI [55]: 57.3 µM
GI50 [36]: 6.24 µM
TGI [36]: 33.1 µM
GI50 [37]: 19.6 µM
TGI [37]: 44.3 µM
GI50 [38]: 13.4 µM
TGI [38]: 36.6 µM
GI50 [40]: 8.15 µM
TGI [40]: 23.9 µM
GI50 [41]: 14.6 µM
TGI [41]: 38.8 µM
GI50 [56]: 14.9 µM
TGI [56]: 88 µM
GI50 [42]: 14.4 µM
TGI [42]: 34.2 µM
GI50 [43]: 3.29 µM
TGI [43]: 26.4 µM
GI50 [44]: 22 µM
TGI [44]: > 85.3 µM
GI50 [57]: 10.4 µM
TGI [57]: 61.1 µM
GI50 [45]: 16.2 µM
TGI [45]: 32.6 µM
GI50 [58]: 15.2 µM
TGI [58]: 45.3 µM
GI50 [59]: 14.3 µM
TGI [59]: 29 µM

c1ccc2c(c1)SCCCS2
TGI [1]: > 100 µM
TGI [2]: > 100 µM
TGI [3]: > 100 µM
TGI [4]: > 100 µM
TGI [5]: > 100 µM
TGI [6]: > 100 µM
TGI [7]: > 100 µM
TGI [8]: > 100 µM
TGI [9]: > 100 µM
TGI [46]: > 100 µM
TGI [10]: > 100 µM
TGI [11]: > 100 µM
TGI [12]: > 100 µM
TGI [13]: > 100 µM
TGI [47]: > 100 µM
TGI [48]: > 100 µM
TGI [17]: > 100 µM
TGI [49]: > 100 µM
TGI [18]: > 100 µM
TGI [19]: > 100 µM
TGI [20]: > 100 µM
TGI [21]: > 100 µM
TGI [50]: > 100 µM
TGI [22]: > 100 µM
TGI [51]: > 100 µM
TGI [23]: > 100 µM
TGI [24]: > 100 µM
TGI [25]: > 100 µM
TGI [28]: > 100 µM
TGI [29]: > 100 µM
TGI [52]: > 100 µM
TGI [30]: > 100 µM
TGI [53]: > 100 µM
TGI [31]: > 100 µM
TGI [33]: > 100 µM
TGI [54]: > 100 µM
TGI [34]: > 100 µM
TGI [35]: > 100 µM
TGI [55]: > 100 µM
TGI [36]: > 100 µM
TGI [37]: > 100 µM
TGI [38]: > 100 µM
TGI [39]: > 100 µM
TGI [40]: > 100 µM
TGI [41]: > 100 µM
TGI [56]: > 100 µM
TGI [42]: > 100 µM
TGI [43]: > 100 µM
TGI [44]: > 100 µM
TGI [45]: > 100 µM
